Data: ChEMBL document CHEMBL4382196, “Unraveling the Prenylation-Cancer Paradox in Multiple Myeloma with Novel Geranylgeranyl Pyrophosphate Synthase (GGPPS) Inhibitors” (J Med Chem, 2018)
Residue numbers refer to the chain shown, from its start. One block for each compound: values may come before it. Activity calls are given as the source filed them. No cut-off for these calls is given here.

What was measured:
[1] = test system: RPMI-8226; assay: cells; details: Homo sapiens, RPMI-8226, 72 h
[2] = molecular target: T1, Farnesyl pyrophosphate synthase (Homo sapiens, UniProt P14324); assay: Inhibition of human FPPS using [14C]-IPP and […] after 10 mins by scintillation counting
T1 sequence (P14324 whole entry): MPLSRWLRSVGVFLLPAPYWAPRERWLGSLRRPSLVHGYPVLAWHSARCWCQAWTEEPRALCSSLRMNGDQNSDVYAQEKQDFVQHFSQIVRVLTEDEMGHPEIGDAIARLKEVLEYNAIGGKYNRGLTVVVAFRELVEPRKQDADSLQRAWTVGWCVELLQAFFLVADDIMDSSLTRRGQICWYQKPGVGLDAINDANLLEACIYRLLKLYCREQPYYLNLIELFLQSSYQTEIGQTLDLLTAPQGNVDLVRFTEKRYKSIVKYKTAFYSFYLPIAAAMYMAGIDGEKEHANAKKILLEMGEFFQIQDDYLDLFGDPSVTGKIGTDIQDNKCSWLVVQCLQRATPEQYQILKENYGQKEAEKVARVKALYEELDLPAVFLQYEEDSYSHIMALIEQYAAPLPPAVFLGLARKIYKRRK

[3] = test system: RPMI-8226; assay: Induction of apoptosis in human RPMI8226 cells after 72 hrs by APC Annexin V/eFluor-780-viability double staining-based FACS analysis; type: functional, cell-based
[4] = test system: A549; assay: Antiproliferative activity against human A549 cells at 10 uM after 72 hrs by celltiter-glo luminescent assay; type: functional, cell-based
[5] = test system: MIA PaCa-2; assay: Antiproliferative activity against human MIAPaCa2 cells at 10 uM after 72 hrs by celltiter-glo luminescent assay; type: functional, cell-based
[6] = test system: T98G; assay: Antiproliferative activity against human T98G cells at 10 uM after 72 hrs by celltiter-glo luminescent assay; type: functional, cell-based
[7] = molecular target: T2, Geranylgeranyl pyrophosphate synthase (Homo sapiens, UniProt O95749)
T2 sequence (O95749 whole entry): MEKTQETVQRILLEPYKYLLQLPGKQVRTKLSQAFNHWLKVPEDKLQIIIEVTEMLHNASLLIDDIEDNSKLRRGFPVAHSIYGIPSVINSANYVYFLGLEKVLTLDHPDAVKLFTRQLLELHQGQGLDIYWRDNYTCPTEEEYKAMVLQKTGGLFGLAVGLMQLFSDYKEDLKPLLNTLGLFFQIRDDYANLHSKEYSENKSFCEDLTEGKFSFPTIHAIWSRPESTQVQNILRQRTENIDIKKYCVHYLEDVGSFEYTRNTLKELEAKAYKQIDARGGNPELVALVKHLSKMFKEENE

[8] = test system: NCI/ADR-RES; assay: Antiproliferative activity against human NCI-ADR-RES cells after 72 hrs by celltiter-glo luminescent assay; type: functional, cell-based
[9] = test system: HT-29; assay: Antiproliferative activity against human HT-29 cells at 10 uM after 72 hrs by celltiter-glo luminescent assay; type: functional, cell-based
[10] = test system: HCT-116; assay: Antiproliferative activity against human HCT116 cells at 10 uM after 72 hrs by celltiter-glo luminescent assay; type: functional, cell-based
[11] = test system: HT-1080; assay: Antiproliferative activity against human HT1080 cells at 10 uM after 72 hrs by celltiter-glo luminescent assay; type: functional, cell-based
[12] = species on record: Homo sapiens; assay: Selectivity ratio of IC50 for human FPPS to IC50 for human N-terminal His6-tagged GGPPS
[13] = molecular target: Geranylgeranyl pyrophosphate synthase (Homo sapiens, UniProt O95749, Y246D)
[14] = molecular target: T3, Farnesyl pyrophosphate synthase (Homo sapiens) (UniProt P14324); assay: Inhibition of human FPPS at 1 uM using [14C]-IPP and […] after 10 mins by scintillation counting relative to control
T3 sequence (whole entry): T1 sequence (P14324 whole entry)

[15] = test system: T4, Geranylgeranyl pyrophosphate synthase (Homo sapiens), O95749 [Y246D]; assay: Binding affinity to human N-terminal His6-tagged GGPPS Y246D mutant expressed in Escherichia coli BL21(DE3) assessed as enzyme-inhibitor complex formation by measuring thermal stability in presence of Mg2+ ions by differential scanning fluorimetry
T4 sequence (whole entry): T2 sequence (O95749 whole entry) with Y246D

[16] = molecular target: T5, Geranylgeranyl pyrophosphate synthase (Homo sapiens) (UniProt O95749); assay: Inhibition of human N-terminal His6-tagged GGPPS expressed in Escherichia coli BL21(DE3) at 1 uM using [14C]-IPP and FPP as substrates after 10 mins by scintillation counting relative to control
T5 sequence (whole entry): T2 sequence (O95749 whole entry)

Sequence of Geranylgeranyl pyrophosphate synthase (Homo sapiens, UniProt O95749, Y246D) (O95749 whole entry Y246D): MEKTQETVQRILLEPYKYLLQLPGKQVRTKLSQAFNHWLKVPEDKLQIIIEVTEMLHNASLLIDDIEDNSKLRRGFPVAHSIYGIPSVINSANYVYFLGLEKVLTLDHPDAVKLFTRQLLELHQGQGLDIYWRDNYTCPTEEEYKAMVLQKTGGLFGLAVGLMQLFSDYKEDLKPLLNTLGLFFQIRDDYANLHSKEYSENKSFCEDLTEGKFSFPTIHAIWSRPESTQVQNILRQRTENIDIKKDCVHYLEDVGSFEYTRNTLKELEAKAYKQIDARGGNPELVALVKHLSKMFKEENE

EC50 [1]: 720 nM | IC50 [2]: 2600 nM
Compound: Cc1ccc(C(=O)Nc2cccc(-c3nc(NC(P(=O)(O)O)P(=O)(O)O)c4ccsc4n3)c2)cc1
Activity [3]: Dose-dependent effect

EC50 [1]: 230 nM | IC50 [2]: 1300 nM | IC50 [7]: 75 nM
Compound: COc1ccc(NC(=O)c2cccc(-c3nc(NC(P(=O)(O)O)P(=O)(O)O)c4ccsc4n3)c2)cc1
Activity [4]: Active | Activity [5]: Active | Activity [6]: Active | Activity [8]: Active | Activity [9]: Active | Activity [10]: Active | Activity [11]: Active

EC50 [1]: > 100000 nM | IC50 [7]: 1500 nM
Compound: O=P(O)(O)C(Nc1ncnc2sc(-c3ccc(C(F)(F)F)cc3)cc12)P(=O)(O)O

EC50 [1]: 500 nM | Ratio IC50 [12]: 30 | IC50 [13]: 39 nM
Compound: O=C(Nc1cccc(-c2nc(NC(P(=O)(O)O)P(=O)(O)O)c3ccsc3n2)c1)c1ccccc1

IC50 [2]: 550 nM
Compound: O=P(O)(O)C(Nc1nc(-c2ccccc2)nc2sccc12)P(=O)(O)O

IC50 [2]: > 1000 nM | inhibition [14]: 20% | IC50 [7]: 42 nM | Activity [15]: Active
Compound: O=C(Nc1cccc(-c2nc(NC(P(=O)(O)O)P(=O)(O)O)c3ccsc3n2)c1)c1ccc(F)cc1

inhibition [16]: 40% | IC50 [2]: 800 nM | inhibition [14]: 70% | IC50 [7]: > 1000 nM
Compound: O=P(O)(O)C(Nc1ncnc2sccc12)P(=O)(O)O
